{"source": "patent US4451461A", "about": "“10-(1-Aza-[2,2,2)-bicyclo-3-octyl]-10H-2-phenothiazinesulfonamide and derivatives thereof” (Pharmindustrie, priority 1981, dated 1984)", "test_system": "gastric hypersecretion stimulated by pentagastrine (Heidenhein pouch dogs)", "experiment": "Anti-secretory activity against pentagastrine-stimulated gastric hypersecretion in dogs fitted with the Heidenhein pouch", "type": "in vivo, dog (mongrels)", "conditions": "for ED50 (dose which reduces the hourly acid output by 50% during the 3rd or 4th hour in relation to the second hour of perfusion): p.o., gelatine capsule, 1.5 h after start of pentagastrine perfusion, dogs, doses expressed as base", "experimental": "The anti-secretory activity of the compounds of formula (I) according to the invention has been investigated in cases of gastric hypersecretion which has been stimulated by pentagastrine in dogs fitted with the Heidenhein pouch.\nThree mongrels, fitted with the Heidenhein pouch and not having eaten for 18 hours, were given a veinous perfusion of […] pentagastrine, at a volume of 30 ml/hour for 4 hours. The secretion in the pouch was collected in a bottle which was changed every 15 minutes. 1.5 hours after commencement of the perfusion, the product to be investigated was administered orally in an h°000 gelatine-coated capsule. The effective dose 50% (ED50) is the dose which reduces the hourly acid output by 50% during the 3rd or 4th hour of the experiment in relation to the acid output of the second hour of perfusion. The doses are expressed as a product in basic form."}
{"molecule": "CN/C(=N/CCSCc1nc[nH]c1C)NC#N", "note": "[Cimetidine]", "values": [{"measurement": "ED50 (dose which reduces the hourly acid output by 50% during the 3rd or 4th hour in relation to the second hour of perfusion)", "result": 2.3, "unit": "mg/kg"}]}
{"molecule": "CNS(=O)(=O)c1ccc2c(c1)N(C1CN3CCC1CC3)c1ccccc1S2", "note": "(stereo not shown) [Example 2, N-METHYL-10-[1-AZA-(2,2,2)-BICYCLO-3-OCTYL]-10H-2-PHENOTHIAZINESULFONAMIDE]", "values": [{"measurement": "activity compared with cimetidine (in words)", "setting": "Heidenhein pouch dogs, oral, vs cimetidine", "result": "more active than cimetidine"}, {"measurement": "ED50 (dose which reduces the hourly acid output by 50% during the 3rd or 4th hour in relation to the second hour of perfusion)", "result": 0.7, "unit": "mg/kg"}]}
{"molecule": "CN(C)S(=O)(=O)c1ccc2c(c1)N(C1CN3CCC1CC3)c1ccccc1S2", "note": "(stereo not shown) [N,N-dimethyl-10-[1-aza-(2,2,2)-bicyclo-3-octyl]-10H-2-phenothiazinesulfonamide]", "values": [{"measurement": "ED50 (dose which reduces the hourly acid output by 50% during the 3rd or 4th hour in relation to the second hour of perfusion)", "result": 1.25, "unit": "mg/kg"}]}
